Biological target: T1, OGA (Mus musculus, UniProt Q9EQQ9)
T1 construct: from tissue; host or cells: mouse brain (sagittal sections, forebrain area)
T1 sequence (Q9EQQ9 1-916): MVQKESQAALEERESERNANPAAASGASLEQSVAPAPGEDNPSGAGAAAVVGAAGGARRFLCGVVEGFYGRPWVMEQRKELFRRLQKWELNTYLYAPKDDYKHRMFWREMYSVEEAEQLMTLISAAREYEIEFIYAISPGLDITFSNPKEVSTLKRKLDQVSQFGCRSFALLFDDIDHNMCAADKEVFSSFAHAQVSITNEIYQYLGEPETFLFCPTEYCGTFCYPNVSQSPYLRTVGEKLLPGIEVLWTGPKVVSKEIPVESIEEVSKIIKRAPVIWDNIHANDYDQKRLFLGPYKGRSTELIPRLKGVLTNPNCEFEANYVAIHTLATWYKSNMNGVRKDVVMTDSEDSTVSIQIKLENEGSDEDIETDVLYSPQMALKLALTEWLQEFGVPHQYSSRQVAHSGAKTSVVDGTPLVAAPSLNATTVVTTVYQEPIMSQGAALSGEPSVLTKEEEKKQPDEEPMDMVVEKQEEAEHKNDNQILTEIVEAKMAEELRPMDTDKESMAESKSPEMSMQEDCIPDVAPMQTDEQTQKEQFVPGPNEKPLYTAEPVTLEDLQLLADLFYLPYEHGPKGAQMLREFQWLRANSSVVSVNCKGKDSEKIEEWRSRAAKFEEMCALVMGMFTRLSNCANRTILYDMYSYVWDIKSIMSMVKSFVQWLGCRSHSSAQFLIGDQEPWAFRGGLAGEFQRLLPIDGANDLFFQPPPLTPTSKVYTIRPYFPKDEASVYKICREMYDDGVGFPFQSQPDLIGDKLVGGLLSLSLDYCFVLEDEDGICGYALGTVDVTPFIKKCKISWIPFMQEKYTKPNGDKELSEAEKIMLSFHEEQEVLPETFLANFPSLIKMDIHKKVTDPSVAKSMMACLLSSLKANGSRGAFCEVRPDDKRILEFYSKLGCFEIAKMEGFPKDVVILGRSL
Assay: Ex vivo OGA occupancy assay using [3H]-ligand (brain sections, autoradiography)
Type: in vivo
Settings: po, Male NMRI or C57Bl6j mice, p.o., 24 h after administration, forebrain area, normalised to vehicle, read-out: Occupancy (% +/- sd)
Protocol: Male NMRI or C57Bl6j mice were treated by oral (p.o.) administration of vehicle or compound. Animals were sacrificed 24 hours after administration. Brains were immediately removed from the skull, hemispheres were separated and the right hemisphere, for ex vivo OGA occupancy assay, was rapidly frozen in dry-ice cooled 2-methylbutane (−40° C.). Twenty […]m-thick sagittal sections were cut using a Leica CM 3050 cryostat-microtome (Leica, Belgium), thaw-mounted on microscope slides (SuperFrost Plus Slides, Thermo Fisher Scientific) and stored at −20° C. until use. After thawing, sections were dried under a cold stream of air. The sections were not washed prior to incubation. The 10 minutes incubation with 3 nM [^3H]-ligand was rigorously controlled. All brain sections (from compound-treated and vehicle-treated animals) were incubated in parallel. After incubation, the excess of [^3H]-ligand was washed off in ice-cold buffer (PBS 1× and 1% BSA) 2 times 10 minutes, followed by a quick dip in distilled water. The sections were then dried under a stream of cold air.
Radioactivity in the forebrain area of brain slices was measured using a β-imager with M3 vision analysis software (Biospace Lab, Paris). Specific binding was calculated as the difference between total binding and non-specific binding measured in Thiamet-G (10 μM) treated sections. […]

- receptor occupancy at 25 mg/kg: 3.33%
Structure (SMILES): Cc1cc(C2CCCN(C(C)c3ccc4sc(C)nc4n3)C2)cc(C)n1 (racemic) [Compound 39]
